{
  "source": "the Deep4Chem optical property database",
  "experiment": "solvent given as SMILES",
  "data": [
    {"smiles": "O=C([O-])c1ccccc1-c1c2cc(I)c(=O)c(I)c-2oc2c(I)c([O-])c(I)cc12", "values": [
      {"measurement": "emission maximum", "setting": "in CC(C)O", "value": 557, "unit": "nm"},
      {"measurement": "emission maximum", "setting": "in CCO", "value": 551, "unit": "nm"},
      {"measurement": "emission maximum", "setting": "in CO", "value": 545, "unit": "nm"},
      {"measurement": "emission maximum", "setting": "in O", "value": 534, "unit": "nm"}
    ]},
    {"smiles": "O=c1[nH]c(=O)c2scc([C@H]3C[C@H](O)[C@@H](CO)O3)c2[nH]1", "values": [
      {"measurement": "emission maximum", "setting": "in CC#N", "value": 345, "unit": "nm"},
      {"measurement": "emission maximum", "setting": "in CCOC(C)=O", "value": 343, "unit": "nm"},
      {"measurement": "emission maximum", "setting": "in CO", "value": 351, "unit": "nm"},
      {"measurement": "emission maximum", "setting": "in O", "value": 351, "unit": "nm"}
    ]},
    {"smiles": "O=c1[nH]c(=O)n([C@@H]2O[C@H](CO)[C@@H](O)[C@H]2O)cc1-c1cc2ccccc2s1", "values": [
      {"measurement": "emission maximum", "setting": "in C1COCCO1", "value": 435, "unit": "nm"},
      {"measurement": "emission maximum", "setting": "in CC#N", "value": 443, "unit": "nm"},
      {"measurement": "emission maximum", "setting": "in CO", "value": 446, "unit": "nm"},
      {"measurement": "emission maximum", "setting": "in O", "value": 458, "unit": "nm"}
    ]},
    {"smiles": "COc1cc(/C=C/C(=O)CC(=O)/C=C/c2ccc(O)c(OC)c2)ccc1O", "values": [
      {"measurement": "emission maximum", "setting": "in C1CCCCC1", "value": 446, "unit": "nm"},
      {"measurement": "emission maximum", "setting": "in CC#N", "value": 538, "unit": "nm"},
      {"measurement": "emission maximum", "setting": "in CN(C)C=O", "value": 542, "unit": "nm"},
      {"measurement": "emission maximum", "setting": "in CO", "value": 560, "unit": "nm"},
      {"measurement": "emission maximum", "setting": "in CS(C)=O", "value": 549, "unit": "nm"},
      {"measurement": "emission maximum", "setting": "in c1ccccc1", "value": 464, "unit": "nm"}
    ]},
    {"smiles": "CCC1=C(C)C2=C(C)c3cc(I)c(I)n3[B-](F)(F)[N+]2=C1C", "values": [
      {"measurement": "emission maximum", "setting": "in C1CCCCC1", "value": 546, "unit": "nm"},
      {"measurement": "emission maximum", "setting": "in CC(C)=O", "value": 544.5, "unit": "nm"},
      {"measurement": "emission maximum", "setting": "in CCO", "value": 548, "unit": "nm"},
      {"measurement": "emission maximum", "setting": "in CCOC(C)=O", "value": 544.5, "unit": "nm"},
      {"measurement": "emission maximum", "setting": "in CO", "value": 546, "unit": "nm"},
      {"measurement": "emission maximum", "setting": "in OCC(F)(F)F", "value": 542.5, "unit": "nm"}
    ]},
    {"smiles": "C(=C\\c1cnccn1)/c1ccc(N(c2ccccc2)c2ccccc2)cc1", "values": [
      {"measurement": "emission maximum", "setting": "in C1CCOC1", "value": 487, "unit": "nm"},
      {"measurement": "emission maximum", "setting": "in CC#N", "value": 535, "unit": "nm"},
      {"measurement": "emission maximum", "setting": "in CCCCCCC", "value": 433, "unit": "nm"},
      {"measurement": "emission maximum", "setting": "in CS(C)=O", "value": 537, "unit": "nm"},
      {"measurement": "emission maximum", "setting": "in ClCCl", "value": 543, "unit": "nm"}
    ]},
    {"smiles": "COC(=O)C1=C(C(=O)OC)C2=C[C@H]3c4ccccc4[C@]2(S1)c1ccccc13", "values": [
      {"measurement": "emission maximum", "setting": "in C1CCOC1", "value": 477, "unit": "nm"},
      {"measurement": "emission maximum", "setting": "in CC#N", "value": 489, "unit": "nm"},
      {"measurement": "emission maximum", "setting": "in CCCCCC", "value": 465, "unit": "nm"},
      {"measurement": "emission maximum", "setting": "in CCOCC", "value": 473, "unit": "nm"},
      {"measurement": "emission maximum", "setting": "in CO", "value": 500, "unit": "nm"},
      {"measurement": "emission maximum", "setting": "in ClCCl", "value": 488, "unit": "nm"},
      {"measurement": "emission maximum", "setting": "in c1ccccc1", "value": 477, "unit": "nm"}
    ]},
    {"smiles": "CCCCN1C(=O)c2cccc3cccc(c23)C1=O", "values": [
      {"measurement": "emission maximum", "setting": "in Cc1ccccc1", "value": 392, "unit": "nm"}
    ]},
    {"smiles": "c1ccccc1", "values": [
      {"measurement": "emission maximum", "setting": "in C1CCCCC1", "value": 287.36, "unit": "nm"}
    ]},
    {"smiles": "C(=C\\c1nc(/C=C/c2ccc(N(c3ccccc3)c3ccccc3)cc2)cc(/C=C/c2ccc(N(c3ccccc3)c3ccccc3)cc2)n1)/c1ccccc1", "values": [
      {"measurement": "emission maximum", "setting": "in C1CCOC1", "value": 520, "unit": "nm"},
      {"measurement": "emission maximum", "setting": "in CC#N", "value": 591, "unit": "nm"},
      {"measurement": "emission maximum", "setting": "in CC(C)=O", "value": 563, "unit": "nm"},
      {"measurement": "emission maximum", "setting": "in CCCCCCC", "value": 464, "unit": "nm"},
      {"measurement": "emission maximum", "setting": "in CS(C)=O", "value": 596, "unit": "nm"},
      {"measurement": "emission maximum", "setting": "in Cc1ccccc1", "value": 482, "unit": "nm"},
      {"measurement": "emission maximum", "setting": "in ClCCl", "value": 551, "unit": "nm"}
    ]},
    {"smiles": "CCCCn1c(-c2ccc(-c3nnc(-c4cccs4)o3)cc2)nc(-c2ccccc2)c1-c1ccccc1", "values": [
      {"measurement": "emission maximum", "setting": "in ClCCl", "value": 444, "unit": "nm"}
    ]},
    {"smiles": "Cc1ccc(S(=O)(=O)Nc2c(/C=C/c3ccccc3)sc(-c3ccc(N(C)C)s3)c2-c2cccnc2)cc1", "values": [
      {"measurement": "emission maximum", "setting": "in CC#N", "value": 610, "unit": "nm"}
    ]},
    {"smiles": "COCCOCCOCCOCC(COCCOCCOCCOC)Oc1cc(/C=C/c2ccc(/C=C(\\C#N)c3ccncc3)cc2)c(OC(COCCOCCOCCOC)COCCOCCOCCOC)cc1/C=C/c1ccc(/C=C(\\C#N)c2ccncc2)cc1", "values": [
      {"measurement": "emission maximum", "setting": "in ClCCl", "value": 574, "unit": "nm"}
    ]},
    {"smiles": "Cn1cc(-c2nc3ccccc3nc2/C=C/N2CCCC2)c2ccccc21", "values": [
      {"measurement": "emission maximum", "setting": "in CC#N", "value": 556.97, "unit": "nm"},
      {"measurement": "emission maximum", "setting": "in CC(C)=O", "value": 465.99, "unit": "nm"},
      {"measurement": "emission maximum", "setting": "in CCO", "value": 548.05, "unit": "nm"}
    ]},
    {"smiles": "CCCCCCn1c2cc(/C=C(\\C#N)c3cccs3)ccc2c2ccc(/C=C(\\C#N)c3cccs3)cc21", "values": [
      {"measurement": "emission maximum", "setting": "in ClC(Cl)Cl", "value": 469.48, "unit": "nm"}
    ]},
    {"smiles": "Cc1cc(O)c(C(=O)/C=C/c2ccccc2Cl)c(=O)o1", "values": [
      {"measurement": "emission maximum", "setting": "in CC#N", "value": 481, "unit": "nm"},
      {"measurement": "emission maximum", "setting": "in ClCCl", "value": 469, "unit": "nm"}
    ]},
    {"smiles": "CCCSC1=[N+]2C(=C(c3ccccc3)c3ccc(SCCC)n3[B-]2(F)F)C=C1SC#N", "values": [
      {"measurement": "emission maximum", "setting": "in CC#N", "value": 584, "unit": "nm"},
      {"measurement": "emission maximum", "setting": "in CCCCCC", "value": 597, "unit": "nm"},
      {"measurement": "emission maximum", "setting": "in CCOC(C)=O", "value": 588, "unit": "nm"},
      {"measurement": "emission maximum", "setting": "in CO", "value": 582, "unit": "nm"},
      {"measurement": "emission maximum", "setting": "in ClCCl", "value": 586, "unit": "nm"}
    ]},
    {"smiles": "C(#Cc1ccccc1)C1=Cc2ccc3ccccc3c2NB1c1ccccc1", "values": [
      {"measurement": "emission maximum", "setting": "in C1CCCCC1", "value": 416, "unit": "nm"}
    ]},
    {"smiles": "CB1C=Cc2ccc3ccccc3c2N1c1ccccc1", "values": [
      {"measurement": "emission maximum", "setting": "in C1CCCCC1", "value": 387, "unit": "nm"}
    ]},
    {"smiles": "CCOC(=O)/C(C#N)=C\\c1cn(-c2ccccc2)nc1-c1ccccc1", "values": [
      {"measurement": "emission maximum", "setting": "in C1CCOC1", "value": 429, "unit": "nm"},
      {"measurement": "emission maximum", "setting": "in C1COCCO1", "value": 408, "unit": "nm"},
      {"measurement": "emission maximum", "setting": "in CCO", "value": 423, "unit": "nm"},
      {"measurement": "emission maximum", "setting": "in CCOC(C)=O", "value": 427, "unit": "nm"},
      {"measurement": "emission maximum", "setting": "in CN(C)C=O", "value": 434, "unit": "nm"},
      {"measurement": "emission maximum", "setting": "in CO", "value": 434, "unit": "nm"},
      {"measurement": "emission maximum", "setting": "in CS(C)=O", "value": 440, "unit": "nm"},
      {"measurement": "emission maximum", "setting": "in Cc1ccccc1", "value": 407, "unit": "nm"},
      {"measurement": "emission maximum", "setting": "in ClC(Cl)Cl", "value": 431, "unit": "nm"},
      {"measurement": "emission maximum", "setting": "in ClCCl", "value": 428, "unit": "nm"}
    ]}
  ]
}
